The test system of experiment [1] is Streptococcus pneumoniae. Kind of experiment: Antibacterial activity against penicillin intermediate Streptococcus pneumoniae clinical isolate assessed as susceptibility level by broth microdilution method. Type of experiment: functional.
The subject of experiment [2] is Streptococcus mitis. Kind of experiment: Antibacterial activity against Streptococcus mitis clinical isolate by broth microdilution method. It is filed as functional. (In general: In broth dilution the organism is exposed to a series of concentrations in liquid medium.)
In experiment [3] the test system is Streptococcus constellatus. Kind of experiment: Antibacterial activity against Streptococcus constellatus clinical isolate by broth microdilution method. Type of experiment: functional.
Experiment [4] relates to Streptococcus pneumoniae. Kind of experiment: Antibacterial activity against penicillin resistant Streptococcus pneumoniae clinical isolate assessed as susceptibility level by broth microdilution method. Type of experiment: functional.
Experiment [5] relates to Streptococcus intermedius. Kind of experiment: Antibacterial activity against Streptococcus intermedius clinical isolate by broth microdilution method. It is filed as functional.
Experiment [6] concerns Streptococcus pneumoniae. Kind of experiment: Antibacterial activity against multidrug-resistant Streptococcus pneumoniae clinical isolate assessed as susceptibility level by broth microdilution method. Type of experiment: functional.
The test system of experiment [7] is Streptococcus agalactiae. Kind of experiment: Antibacterial activity against Streptococcus agalactiae group B clinical isolate by broth microdilution method. It is filed as functional.
For experiment [8], the system named is Streptococcus pneumoniae. Kind of experiment: Antibacterial activity against penicillin intermediate Streptococcus pneumoniae clinical isolate by broth microdilution method. Type of experiment: functional.
The test system of experiment [9] is Streptococcus oralis. Kind of experiment: Antibacterial activity against Streptococcus oralis clinical isolate by broth microdilution method. Type of experiment: functional.
The test system of experiment [10] is Streptococcus pneumoniae. Kind of experiment: Antibacterial activity against penicillin resistant Streptococcus pneumoniae clinical isolate by broth microdilution method. It is filed as functional.
For experiment [11], the system named is Streptococcus pneumoniae. Kind of experiment: Antibacterial activity against multidrug-resistant Streptococcus pneumoniae clinical isolate by broth microdilution method. It is filed as functional.
Experiment [12] has as its system Streptococcus viridans. Kind of experiment: Antibacterial activity against Streptococcus viridans clinical isolate by broth microdilution method. Type of experiment: functional.
The subject of experiment [13] is Streptococcus pyogenes. Kind of experiment: Antibacterial activity against Streptococcus pyogenes group A clinical isolate by broth microdilution method. It is filed as functional.
Experiment [14] relates to Streptococcus viridans. Kind of experiment: Antibacterial activity against Streptococcus viridans clinical isolate assessed as susceptibility level by broth microdilution method. Type of experiment: functional.
In experiment [15] the test system is Streptococcus mitis. Kind of experiment: Antibacterial activity against Streptococcus mitis clinical isolate assessed as susceptibility level by broth microdilution method. Type of experiment: functional.
Experiment [16] relates to Streptococcus constellatus. Kind of experiment: Antibacterial activity against Streptococcus constellatus clinical isolate assessed as susceptibility level by broth microdilution method. Type of experiment: functional.
For experiment [17], the system named is Streptococcus oralis. Kind of experiment: Antibacterial activity against Streptococcus oralis clinical isolate assessed as susceptibility level by broth microdilution method. Type of experiment: functional.
Experiment [18] relates to Streptococcus intermedius. Kind of experiment: Antibacterial activity against Streptococcus intermedius clinical isolate assessed as susceptibility level by broth microdilution method. It is filed as functional.
The subject of experiment [19] is Streptococcus agalactiae. Kind of experiment: Antibacterial activity against Streptococcus agalactiae group B clinical isolate assessed as susceptibility level by broth microdilution method. Type of experiment: functional.
Experiment [20] relates to Streptococcus pyogenes. Kind of experiment: Antibacterial activity against Streptococcus pyogenes group A clinical isolate assessed as susceptibility level by broth microdilution method. Type of experiment: functional.

Molecules are shown by their SMILES. In brackets after ≈: the same amount, converted by molar mass. Activity calls are given as the source filed them.

For `O=C(O)c1cn(C2CC2)c2cc(N3CCNCC3)c(F)cc2c1=O`, in the experiment on Enterococcus faecalis, the MIC50 result was “inactive” and the MIC90 result was “inactive”.

As to `CO/N=C(\C(=O)N[C@@H]1C(=O)N2C(C(=O)O)=C(COC(N)=O)CS[C@H]12)c1ccco1` [CEFUROXIME], the Activity was 17% in the experiment with Streptococcus pneumoniae [1], 2% in the experiment on Streptococcus pneumoniae [4] and 2% in the experiment on Streptococcus pneumoniae [6]. Besides, the MIC (in the experiment with Streptococcus mitis [2]; in experiment [3]; in experiment [5]; in the experiment with Streptococcus agalactiae [7]; in the experiment with Streptococcus oralis [9]; against Streptococcus viridans [12]) was no more than 0.12 µg/mL throughout. Also, the MIC with Streptococcus pyogenes [13] was no more than 0.12 µg/mL. The MIC50 result (in the experiment on Streptococcus mitis [2]; in [3]; in experiment [5]; with Streptococcus oralis [9]; in the experiment with Streptococcus viridans [12]) was “inactive” each time. Also, the MIC90 result (in the experiment with Streptococcus mitis [2]; in experiment [3]; in experiment [5]; in the experiment with Streptococcus oralis [9]; with Streptococcus viridans [12]) was “inactive” in each case. For the same compound, the MIC50 is no more than 0.12 µg/mL with Streptococcus agalactiae [7]; 2 µg/mL (≈ 4.71 µM) against Streptococcus pneumoniae [8]; greater than 4 µg/mL against Streptococcus pneumoniae [10]; greater than 4 µg/mL in the experiment on Streptococcus pneumoniae [11]; no more than 0.12 µg/mL against Streptococcus pyogenes [13]. In addition, the MIC90 was no more than 0.12 µg/mL against Streptococcus agalactiae [7]; 4 µg/mL (≈ 9.43 µM) with Streptococcus pneumoniae [8]; greater than 4 µg/mL in the experiment on Streptococcus pneumoniae [10]; greater than 4 µg/mL with Streptococcus pneumoniae [11]; 0.25 µg/mL (≈ 0.589 µM) against Streptococcus pyogenes [13].

`CC1(C)S[C@@H]2[C@H](NC(=O)Cc3ccccc3)C(=O)N2[C@H]1C(=O)O` [PENICILLIN G]: the Activity in the experiment on Streptococcus pneumoniae [1] is listed as 0%; in the experiment on Streptococcus viridans [14], 62%; in the experiment on Streptococcus mitis [15], 62%; in [16] it was 62%; with Streptococcus oralis [17], 62%; in [18], 62%. The Activity is recorded as 96% with Streptococcus agalactiae [19] and 93% in the experiment with Streptococcus pyogenes [20]. In addition, the MIC in the experiment on Streptococcus mitis [2] is no more than 0.06 µg/mL; in experiment [3], no more than 0.06 µg/mL; in [5], no more than 0.06 µg/mL; against Streptococcus agalactiae [7], no more than 0.06 µg/mL; in the experiment with Streptococcus oralis [9], no more than 0.06 µg/mL; in the experiment with Streptococcus pneumoniae [10], 2 µg/mL (≈ 5.98 µM). In addition, the MIC against Streptococcus viridans [12] and with Streptococcus pyogenes [13] was no more than 0.06 µg/mL throughout. Further, the MIC50 result (with Streptococcus mitis [2]; in experiment [3]; in experiment [5]; in the experiment with Streptococcus oralis [9]; in the experiment with Streptococcus viridans [12]) was “inactive” each time. Besides, the MIC90 entry (in the experiment with Streptococcus mitis [2]; in experiment [3]; in [5]; in the experiment with Streptococcus oralis [9]; in the experiment with Streptococcus viridans [12]) was “inactive” throughout. Moreover, the MIC50 in the experiment with Streptococcus agalactiae [7] was no more than 0.06 µg/mL; against Streptococcus pneumoniae [8], 1 µg/mL (≈ 2.99 µM); with Streptococcus pneumoniae [10], 2 µg/mL (≈ 5.98 µM); in the experiment with Streptococcus pneumoniae [11] it was 2 µg/mL (≈ 5.98 µM); with Streptococcus pyogenes [13], no more than 0.06 µg/mL. For the same compound, the MIC90 is no more than 0.06 µg/mL in the experiment with Streptococcus agalactiae [7]; 1 µg/mL (≈ 2.99 µM) in the experiment on Streptococcus pneumoniae [8]; greater than 2 µg/mL in the experiment on Streptococcus pneumoniae [10]; greater than 2 µg/mL against Streptococcus pneumoniae [11]; no more than 0.06 µg/mL against Streptococcus pyogenes [13].

Usually MIC50 stands for the lowest concentration that inhibits either 50% of growth or 50% of the strains tested, depending on the study. Usually MIC90 stands for the lowest concentration that inhibits either 90% of growth or 90% of the strains tested, depending on the study. The term MIC denotes the smallest concentration in the dilution series that meets the test's criterion for growth inhibition.

The record behind these values is ChEMBL document CHEMBL1275440, “In vitro activity of telavancin against resistant gram-positive bacteria” (2008).
